Entries after “also recorded” stand apart in the source; their conditions may differ. Where a name gives a salt, the structure may show the parent alone. Read-outs that look alike come from different tables or passages of the source.
Legend:
[1] = target: T1, DPP IV (Felis catus, UniProt Q9N2I7); test: Exploratory multiple dose PK/PD (1.0/3.0/9.0 mg/animal, 14 days) in cats: DPP IV activity; type: in vivo, cat; conditions: for response vs control in vivo at 1 mg/animal: head 1 mg/animal (title 1.0 mg/animal); for response vs control in vivo at 1 mg/animal / response vs control in vivo at 3 mg/animal / response vs control in vivo at 9 mg/animal: read-out: DPP IV activity in cat plasma; for response vs control in vivo at 3 mg/animal: head 3 mg/animal (title 3.0 mg/animal)
T1 construct: Blood samples for the determination of this compound and DPP IV activity were collected; from tissue; host or cells: plasma of domestic short hair / purpose-bred cats dosed orally
T1 sequence (Q9N2I7 38-765 limits assumed): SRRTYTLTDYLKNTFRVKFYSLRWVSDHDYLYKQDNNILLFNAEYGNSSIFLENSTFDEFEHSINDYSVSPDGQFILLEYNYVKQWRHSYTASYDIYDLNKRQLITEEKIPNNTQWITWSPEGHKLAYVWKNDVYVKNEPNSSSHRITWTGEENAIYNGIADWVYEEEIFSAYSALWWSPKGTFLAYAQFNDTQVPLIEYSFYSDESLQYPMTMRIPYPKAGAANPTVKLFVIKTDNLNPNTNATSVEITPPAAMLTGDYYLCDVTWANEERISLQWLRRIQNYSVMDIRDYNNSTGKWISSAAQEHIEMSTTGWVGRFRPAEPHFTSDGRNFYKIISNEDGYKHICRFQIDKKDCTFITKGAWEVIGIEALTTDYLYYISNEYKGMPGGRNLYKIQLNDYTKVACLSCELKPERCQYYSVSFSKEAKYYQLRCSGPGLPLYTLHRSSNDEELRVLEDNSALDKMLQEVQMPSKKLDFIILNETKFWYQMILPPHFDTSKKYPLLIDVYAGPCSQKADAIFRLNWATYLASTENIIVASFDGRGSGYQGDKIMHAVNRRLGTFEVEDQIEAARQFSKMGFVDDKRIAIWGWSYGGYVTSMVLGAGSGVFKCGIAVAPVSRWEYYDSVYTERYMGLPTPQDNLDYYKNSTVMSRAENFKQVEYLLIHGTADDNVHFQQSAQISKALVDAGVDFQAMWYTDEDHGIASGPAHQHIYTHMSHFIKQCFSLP
Procedure: The aim of this study was to investigate the PK/PD effects of 1-[(3-cyano-pyridin-2-yl)methyl]-3-methyl-7-(2-butyn-1-yl)-8-[3-(R)-amino-piperidin-1-yl]-xanthine in cats following repeated oral administration of 0, 1, 3 and 9 mg/animal over 14 days corresponding to a dose of 0, 0.25, 0.75 and 2.25 mg/kg body weight for a cat weighing 4 kg. (Dosages were based on the free base: 1 mg 1-[(3-cyano-pyridin-2-yl)methyl]-3-methyl-7-(2-butyn-1-yl)-8-[3-(R)-amino-piperidin-1-yl]-xanthine monohydrochloride corresponds to 0.923 mg 1-[(3-cyano-pyridin-2-yl)methyl]-3-methyl-7-(2-butyn-1-yl)-8-[3-(R)-amino-piperidin-1-yl]-xanthine free base).
For this purpose, twelve clinically healthy male adult domestic short hair cats with a body weight range of 3.5-4.8 kg were used. The animals were randomly allocated to 4 groups, 3 animals per group. All animals were treated once daily orally for 14 days (i.e. on days 0-13). The test article was administered via capsules at doses of 1 (group II), 3 (group III) or 9 (group IV) mg of the monohydrochloride compound per animal; group I received placebo serving as controls. Blood samples for PK and PD (DPP IV activity) investigations were drawn at 0 h (i.e. prior to the 1st treatment), 0.5, 1, 2, 4, 8, 12 and 24 h after the 1st treatment as well as 24 h after the 3rd, 5th, 7th, 9th, 11th and 13th treatment and 0.5, 1, 2, 4, 8, 12 and 24 h after the 14th treatment.

[2] = target: DPP-II (Homo sapiens, UniProt Q9UHL4); test: In vitro selectivity, human proteases: DPP-II; type: biochemical; conditions: up to 100 μM
Text: In order to determine the in vitro selectivity of 1-[(3-cyano-pyridin-2-yl)methyl]-3-methyl-7-(2-butyn-1-yl)-8-[3-(R)-amino-piperidin-1-yl]-xanthine, the ability of this compound to inhibit a number of human proteases was investigated as described in Thomas et al. (2008), J. Pharmacol. Exp. Ther., vol. 325, p. 175-182, chapter In vitro DPP-4 Inhibition Assay, p. 176.

[3] = 60-Day tolerability study of tablets in cats: adverse effects; type: in vivo; conditions: 20 and 40 mg daily oral tablets for 60 days, monohydrochloride
Procedure: This study was conducted in order to examine the long-term tolerability of a pharmaceutical composition comprising 1-[(3-cyano-pyridin-2-yl)methyl]-3-methyl-7-(2-butyn-1-yl)-8-[3-(R)-amino-piperidin-1-yl]-xanthine monohydrochloride in cats after repeated oral administration for 60-days.
For this purpose, the compound according to the invention has been admixed with standard ingredients to a scored, oblong, brown tablet, size 10×5.5 mm, comprising 1-[(3-cyano-pyridin-2-yl)methyl]-3-methyl-7-(2-butyn-1-yl)-8-[3-(R)-amino-piperidin-1-yl]-xanthine monohydrochloride at 21.68 mg of the chloride per tablet (which equals 20 mg of the free base) and 10% meat flavour.
20 male healthy non-obese cats (Domestic short hair feline) supplied by Liberty Research, Inc., Waverly, N.Y., USA, of an age of 13 to 20 months were used. After an adaptation period of 4 weeks, they were separated into three groups: group 1 (6 members, no. 1 to 6) for placebo treatment, group 2 (7 members, no. 7 to 13) for treatment with 20 mg/cat, group 3 (7 members, no. 14 to 20) for treatment with 40 mg/cat. They were treated once daily in the morning, orally with the respective tablet(s) for 60 days. All animals had fasted over night and were fed 4 hours after the administration. Drinking water was offered ad libitum. […]

[4] = target: DPP IV (Homo sapiens, UniProt P27487); test: In vitro DPP IV inhibition; type: biochemical; conditions: for IC50: in vitro
Chain of DPP IV (Homo sapiens, UniProt P27487) (P27487 whole entry, species assumed): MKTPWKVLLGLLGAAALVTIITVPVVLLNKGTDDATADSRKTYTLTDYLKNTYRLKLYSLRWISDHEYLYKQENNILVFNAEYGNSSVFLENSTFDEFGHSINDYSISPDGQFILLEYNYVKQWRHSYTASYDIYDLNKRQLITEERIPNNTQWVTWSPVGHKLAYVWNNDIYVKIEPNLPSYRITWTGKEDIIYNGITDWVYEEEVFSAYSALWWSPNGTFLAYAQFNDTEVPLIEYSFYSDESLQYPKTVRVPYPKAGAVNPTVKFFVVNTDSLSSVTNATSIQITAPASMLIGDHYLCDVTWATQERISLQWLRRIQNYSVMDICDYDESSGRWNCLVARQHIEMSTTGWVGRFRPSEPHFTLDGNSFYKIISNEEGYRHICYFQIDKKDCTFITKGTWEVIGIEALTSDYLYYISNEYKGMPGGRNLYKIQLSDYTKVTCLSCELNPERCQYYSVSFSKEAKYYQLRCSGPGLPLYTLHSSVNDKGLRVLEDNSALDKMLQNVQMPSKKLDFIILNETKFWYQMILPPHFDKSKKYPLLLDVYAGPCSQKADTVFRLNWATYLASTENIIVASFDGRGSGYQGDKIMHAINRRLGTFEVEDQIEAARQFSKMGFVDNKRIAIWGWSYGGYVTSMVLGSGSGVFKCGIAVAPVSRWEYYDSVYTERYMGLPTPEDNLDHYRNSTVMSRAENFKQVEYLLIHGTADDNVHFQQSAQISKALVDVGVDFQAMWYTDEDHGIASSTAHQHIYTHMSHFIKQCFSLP
Procedure: Studies were also conducted to assess the inhibitory effect of this compound on plasma DPP IV activity in several species.

[5] = 0.5 h, once daily oral 14 days, 0.5 h
[6] = 1 h, once daily oral 14 days, 1 h
[7] = 2 h, once daily oral 14 days, 2 h
[8] = 4 h, once daily oral 14 days, 4 h
[9] = 8 h, once daily oral 14 days, 8 h
[10] = 12 h, once daily oral 14 days, 12 h
[11] = 24 h, once daily oral 14 days, 24 h
[12] = 72 h, once daily oral 14 days, 72 h
[13] = 120 h, once daily oral 14 days, 120 h
[14] = 168 h, once daily oral 14 days, 168 h
[15] = 216 h, once daily oral 14 days, 216 h
[16] = 264 h, once daily oral 14 days, 264 h
[17] = 312 h, once daily oral 14 days, 312 h
[18] = 312.5 h, once daily oral 14 days, 312.5 h
[19] = 313 h, once daily oral 14 days, 313 h
[20] = 314 h, once daily oral 14 days, 314 h
[21] = 316 h, once daily oral 14 days, 316 h
[22] = 320 h, once daily oral 14 days, 320 h
[23] = 324 h, once daily oral 14 days, 324 h
[24] = 336 h, once daily oral 14 days, 336 h

SMILES: CC#CCn1c(N2CCC[C@@H](N)C2)nc2c1c(=O)n(Cc1ncccc1C#N)c(=O)n2C [1-[(3-cyano-pyridin-2-yl)methyl]-3-methyl-7-(2-butyn-1-yl)-8-[3-(R)-amino-piperidin-1-yl]-xanthine monohydrochloride]
- response vs control in vivo at 1 mg/animal [1, 5]: 31.3%
- response vs control in vivo at 3 mg/animal [1, 5]: 16%
- response vs control in vivo at 9 mg/animal ([1]; 0.5 h, head 9 mg/animal (title 9.0 mg/animal), once daily oral 14 days, 0.5 h): 8%
- response vs control in vivo at 1 mg/animal [1, 6]: 8.7%
- response vs control in vivo at 3 mg/animal [1, 6]: 10.3%
- response vs control in vivo at 9 mg/animal ([1]; 1 h, head 9 mg/animal (title 9.0 mg/animal), once daily oral 14 days, 1 h): 7.3%
- response vs control in vivo at 1 mg/animal [1, 7]: 9.7%
- response vs control in vivo at 3 mg/animal [1, 7]: 8%
- response vs control in vivo at 9 mg/animal ([1]; 2 h, head 9 mg/animal (title 9.0 mg/animal), once daily oral 14 days, 2 h): 7%
- response vs control in vivo at 1 mg/animal [1, 8]: 11.7%
- response vs control in vivo at 3 mg/animal [1, 8]: 8%
- response vs control in vivo at 9 mg/animal ([1]; 4 h, head 9 mg/animal (title 9.0 mg/animal), once daily oral 14 days, 4 h): 8%
- response vs control in vivo at 1 mg/animal [1, 9]: 17%
- response vs control in vivo at 3 mg/animal [1, 9]: 11.3%
- response vs control in vivo at 9 mg/animal ([1]; 8 h, head 9 mg/animal (title 9.0 mg/animal), once daily oral 14 days, 8 h): 9.3%
- response vs control in vivo at 1 mg/animal [1, 10]: 28%
- response vs control in vivo at 3 mg/animal [1, 10]: 14%
- response vs control in vivo at 9 mg/animal ([1]; 12 h, head 9 mg/animal (title 9.0 mg/animal), once daily oral 14 days, 12 h): 10.7%
- response vs control in vivo at 1 mg/animal [1, 11]: 57.7%
- response vs control in vivo at 3 mg/animal [1, 11]: 31.7%
- response vs control in vivo at 9 mg/animal ([1]; 24 h, head 9 mg/animal (title 9.0 mg/animal), once daily oral 14 days, 24 h): 18%
- response vs control in vivo at 1 mg/animal [1, 12]: 35.3%
- response vs control in vivo at 3 mg/animal [1, 12]: 23.3%
- response vs control in vivo at 9 mg/animal ([1]; 72 h, head 9 mg/animal (title 9.0 mg/animal), once daily oral 14 days, 72 h): 14.3%
- response vs control in vivo at 1 mg/animal [1, 13]: 63%
- response vs control in vivo at 3 mg/animal [1, 13]: 31.7%
- response vs control in vivo at 9 mg/animal ([1]; 120 h, head 9 mg/animal (title 9.0 mg/animal), once daily oral 14 days, 120 h): 17.7%
- response vs control in vivo at 1 mg/animal [1, 14]: 54%
- response vs control in vivo at 3 mg/animal [1, 14]: 41%
- response vs control in vivo at 9 mg/animal ([1]; 168 h, head 9 mg/animal (title 9.0 mg/animal), once daily oral 14 days, 168 h): 14.7%
- response vs control in vivo at 1 mg/animal [1, 15]: 57%
- response vs control in vivo at 3 mg/animal [1, 15]: 31.7%
- response vs control in vivo at 9 mg/animal ([1]; 216 h, head 9 mg/animal (title 9.0 mg/animal), once daily oral 14 days, 216 h): 15%
- response vs control in vivo at 1 mg/animal [1, 16]: 32.7%
- response vs control in vivo at 3 mg/animal [1, 16]: 19.3%
- response vs control in vivo at 9 mg/animal ([1]; 264 h, head 9 mg/animal (title 9.0 mg/animal), once daily oral 14 days, 264 h): 14%
- response vs control in vivo at 1 mg/animal [1, 17]: 61.3%
- response vs control in vivo at 3 mg/animal [1, 17]: 34%
- response vs control in vivo at 9 mg/animal ([1]; 312 h, head 9 mg/animal (title 9.0 mg/animal), once daily oral 14 days, 312 h): 17.3%
- response vs control in vivo at 1 mg/animal [1, 18]: 14%
- response vs control in vivo at 3 mg/animal [1, 18]: 9%
- response vs control in vivo at 9 mg/animal ([1]; 312.5 h, head 9 mg/animal (title 9.0 mg/animal), once daily oral 14 days, 312.5 h): 10%
- response vs control in vivo at 1 mg/animal [1, 19]: 14%
- response vs control in vivo at 3 mg/animal [1, 19]: 8.3%
- response vs control in vivo at 9 mg/animal ([1]; 313 h, head 9 mg/animal (title 9.0 mg/animal), once daily oral 14 days, 313 h): 7.7%
- response vs control in vivo at 1 mg/animal [1, 20]: 13.3%
- response vs control in vivo at 3 mg/animal [1, 20]: 8.7%
- response vs control in vivo at 9 mg/animal ([1]; 314 h, head 9 mg/animal (title 9.0 mg/animal), once daily oral 14 days, 314 h): 7.7%
- response vs control in vivo at 1 mg/animal [1, 21]: 14.7%
- response vs control in vivo at 3 mg/animal [1, 21]: 9.7%
- response vs control in vivo at 9 mg/animal ([1]; 316 h, head 9 mg/animal (title 9.0 mg/animal), once daily oral 14 days, 316 h): 8%
- response vs control in vivo at 1 mg/animal [1, 22]: 22.3%
- response vs control in vivo at 3 mg/animal [1, 22]: 12.3%
- response vs control in vivo at 9 mg/animal ([1]; 320 h, head 9 mg/animal (title 9.0 mg/animal), once daily oral 14 days, 320 h): 10.3%
- response vs control in vivo at 1 mg/animal [1, 23]: 32.3%
- response vs control in vivo at 3 mg/animal [1, 23]: 15%
- response vs control in vivo at 9 mg/animal ([1]; 324 h, head 9 mg/animal (title 9.0 mg/animal), once daily oral 14 days, 324 h): 12%
- response vs control in vivo at 1 mg/animal [1, 24]: 67.7%
- response vs control in vivo at 3 mg/animal [1, 24]: 31.3%
- response vs control in vivo at 9 mg/animal ([1]; 336 h, head 9 mg/animal (title 9.0 mg/animal), once daily oral 14 days, 336 h): 18.7%
- time up to which mean DPP IV values remained ≦20% after 1st treatment ([1]; group II (1 mg per animal)): 8 h
- time up to which mean DPP IV values remained ≦20% after the 14th treatment ([1]; group II (1 mg per animal)): 4 h
- minimum mean DPP IV values after treatment on day 0 ([1]; group II (1 mg per animal), at 1 h): 9%
- mean DPP IV activity, range 24 h after 3rd-13th treatment (72-312 h) ([1]; group II (1 mg/cat)): 33-63%
- time up to which mean DPP IV values remained ≦20% after 1st treatment ([1]; group III (3 mg per animal)): 12 h
- time up to which mean DPP IV values remained ≦20% after the 14th treatment ([1]; group III (3 mg per animal)): 12 h
- minimum mean DPP IV values after treatment on day 0 ([1]; group III (3 mg per animal), at 2 and 4 h): 8%
- mean DPP IV activity, range 24 h after 3rd-13th treatment (72-312 h) ([1]; group III (3 mg/cat)): 19-41%
- time up to which mean DPP IV values remained ≦20% after 1st treatment ([1]; group IV (9 mg per animal)): 24 h
- time up to which mean DPP IV values remained ≦20% after the 14th treatment ([1]; group IV (9 mg per animal)): 24 h
- minimum mean DPP IV values after treatment on day 0 ([1]; group IV (9 mg per animal), at 1 and 2 h): 7%
- mean DPP IV activity, range 24 h after 3rd-13th treatment (72-312 h) ([1]; group IV (9 mg/cat)): 14-18%
- DPP IV activity in cat plasma ([1]; head 9 mg/animal (title 9.0 mg/animal), once daily oral 14 days, 312.5 h, monohydrochloride): 10.0%
- inhibitory effect on DPP-II [2]: did not exert any inhibitory effect
- adverse effects / tolerability [3]: Adverse effects were not detected; also recorded: well tolerated
- IC50 ([4]; GLP-1 as substrate): ~0.18 nM
- IC50 ([4]; dipeptide artificial substrate): ~1 nM
- mode of DPP IV inhibition ([4]; mechanistic studies): competitive and reversible inhibitor

Source: US20140228287A1, “1-[(3-CYANO-PYRIDIN-2-YL)METHYL]-3-METHYL-7-(2-BUTYN-1-YL)-8-[3-(R)-AMINO-PIPERIDIN-1-YL]-AXANTHINE FOR THE TREATMENT OF A METABOLIC DISORDER OF A PREDOMINANTLY CARNIVOROUS NON-HUMAN ANIMAL” (BOEHRINGER INGELHEIM VETMEDICA GMBH, priority 2010, published 2014)
